{"source": "ChEMBL document CHEMBL1134053", "about": "“Structure-activity studies of 5-substituted pyridopyrimidines as adenosine kinase inhibitors” (Bioorg Med Chem Lett, 2001)", "key": {"[1]": {"molecular_target": "T1, Adenosine kinase (Rattus norvegicus, UniProt Q64640)", "T1 sequence (Q64640 whole entry)": "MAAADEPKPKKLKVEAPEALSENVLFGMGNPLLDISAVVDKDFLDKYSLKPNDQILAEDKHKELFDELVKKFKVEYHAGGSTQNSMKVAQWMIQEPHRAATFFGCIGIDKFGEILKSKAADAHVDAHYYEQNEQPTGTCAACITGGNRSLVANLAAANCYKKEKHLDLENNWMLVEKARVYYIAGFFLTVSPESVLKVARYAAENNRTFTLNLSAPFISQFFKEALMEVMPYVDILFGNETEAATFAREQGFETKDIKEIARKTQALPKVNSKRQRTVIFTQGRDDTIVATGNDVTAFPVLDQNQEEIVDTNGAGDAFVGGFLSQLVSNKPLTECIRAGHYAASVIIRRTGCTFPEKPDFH", "experiment": "Inhibitory activity against cytosolic adenosine kinase by ADO phosphorylation assay"}, "[2]": {"molecular_target": "T1, Adenosine kinase", "experiment": "Inhibitory activity against intact cell adenosine kinase by ADO phosphorylation assay"}, "[3]": {"tested_on": "Rattus norvegicus", "experiment": "Tested for analgesic activity in vivo rat carrageenan hyperalgesia assay, administered by intraperitoneal injection to six animals at each dose. p<0.05", "type": "functional", "conditions": "ip"}, "[4]": {"tested_on": "Rattus norvegicus", "experiment": "Tested for analgesic activity in vivo rat formalin nociception assay, administered by intraperitoneal injection to six animals at each dose. p<0.05", "type": "functional", "conditions": "ip"}}, "data": [{"compound": "CN(C)c1ccc(-c2cc(-c3cccc(C#N)c3)c3c(N)ncnc3n2)cc1", "values": [{"measurement": "IC50", "setting": "[1]", "value": 0.035, "unit": "µM"}, {"measurement": "IC50", "setting": "[2]", "value": 0.325, "unit": "µM"}]}, {"compound": "Nc1ncnc2nc(-c3ccc(N4CCOCC4)nc3)cc(-c3cccnc3)c12", "values": [{"measurement": "IC50", "setting": "[1]", "value": 0.062, "unit": "µM"}, {"measurement": "IC50", "setting": "[2]", "value": 0.315, "unit": "µM"}, {"measurement": "ED50", "setting": "[3]", "value": "> 30", "unit": "µmol/kg"}]}, {"compound": "Nc1ncnc2nc(-c3ccc(N4CCOCC4)nc3)cc(-c3ccccc3Br)c12", "values": [{"measurement": "IC50", "setting": "[1]", "value": 0.003, "unit": "µM"}, {"measurement": "IC50", "setting": "[2]", "value": 0.675, "unit": "µM"}, {"measurement": "ED50", "setting": "[3]", "value": 30, "unit": "µmol/kg"}, {"measurement": "ED50", "setting": "[4]", "value": 10, "unit": "µmol/kg"}]}, {"compound": "CN(C)c1ccc(-c2ccc3c(N)ncnc3n2)cc1", "values": [{"measurement": "IC50", "setting": "[1]", "value": 0.733, "unit": "µM"}, {"measurement": "IC50", "setting": "[2]", "value": "> 10", "unit": "µM"}]}, {"compound": "Nc1ncnc2nc(-c3ccc(N4CCOCC4)nc3)cc(-c3cccc(Cl)c3Cl)c12", "values": [{"measurement": "IC50", "setting": "[1]", "value": 0.005, "unit": "µM"}, {"measurement": "IC50", "setting": "[2]", "value": 0.13, "unit": "µM"}, {"measurement": "ED50", "setting": "[3]", "value": 5, "unit": "µmol/kg"}]}, {"compound": "CN(C)c1ccc(-c2cc(-c3cccc(I)c3)c3c(N)ncnc3n2)cc1", "values": [{"measurement": "IC50", "setting": "[1]", "value": 0.017, "unit": "µM"}, {"measurement": "IC50", "setting": "[2]", "value": 0.12, "unit": "µM"}]}, {"compound": "Nc1ncnc2nc(-c3ccc(N4CCOCC4)nc3)cc(Cc3ccccc3Br)c12", "values": [{"measurement": "IC50", "setting": "[1]", "value": 0.00017, "unit": "µM"}, {"measurement": "IC50", "setting": "[2]", "value": 0.033, "unit": "µM"}, {"measurement": "ED50", "setting": "[3]", "value": 3, "unit": "µmol/kg"}, {"measurement": "ED50", "setting": "[4]", "value": 30, "unit": "µmol/kg"}]}, {"compound": "Nc1ncnc2nc(-c3ccc(N4CCOCC4)nc3)cc(C3CCOCC3)c12", "values": [{"measurement": "IC50", "setting": "[1]", "value": 0.017, "unit": "µM"}, {"measurement": "IC50", "setting": "[2]", "value": 0.8, "unit": "µM"}, {"measurement": "ED50", "setting": "[3]", "value": "> 2", "unit": "µmol/kg"}, {"measurement": "ED50", "setting": "[4]", "value": 30, "unit": "µmol/kg"}]}, {"compound": "Nc1ncnc2nc(-c3ccc(N4CCOCC4)nc3)cc(C3CCCC3)c12", "values": [{"measurement": "IC50", "setting": "[1]", "value": 0.002, "unit": "µM"}, {"measurement": "IC50", "setting": "[2]", "value": 0.08, "unit": "µM"}, {"measurement": "ED50", "setting": "[3]", "value": 10, "unit": "µmol/kg"}]}, {"compound": "CN(C)c1ccc(-c2cc(-c3cccc(Br)c3)c3c(N)ncnc3n2)cc1", "values": [{"measurement": "IC50", "setting": "[1]", "value": 0.005, "unit": "µM"}, {"measurement": "IC50", "setting": "[2]", "value": 0.17, "unit": "µM"}, {"measurement": "ED50", "setting": "[3]", "value": 30, "unit": "µmol/kg"}, {"measurement": "ED50", "setting": "[4]", "value": 0.7, "unit": "µmol/kg"}]}, {"compound": "Nc1ncnc2nc(-c3ccc(N4CCOCC4)nc3)cc(-c3ccsc3)c12", "values": [{"measurement": "IC50", "setting": "[1]", "value": 0.013, "unit": "µM"}, {"measurement": "IC50", "setting": "[2]", "value": 0.55, "unit": "µM"}]}, {"compound": "CN(C)c1ccc(-c2cc(-c3cccc(O)c3)c3c(N)ncnc3n2)cc1", "values": [{"measurement": "IC50", "setting": "[1]", "value": 0.044, "unit": "µM"}, {"measurement": "IC50", "setting": "[2]", "value": 0.353, "unit": "µM"}]}, {"compound": "CN(C)c1ccc(-c2cc(-c3ccccc3)c3c(N)ncnc3n2)cc1", "values": [{"measurement": "IC50", "setting": "[1]", "value": 0.007, "unit": "µM"}, {"measurement": "IC50", "setting": "[2]", "value": 0.47, "unit": "µM"}]}, {"compound": "Cc1cc(-c2ccc(N(C)C)cc2)nc2ncnc(N)c12", "values": [{"measurement": "IC50", "setting": "[1]", "value": 0.047, "unit": "µM"}, {"measurement": "IC50", "setting": "[2]", "value": "> 1", "unit": "µM"}]}, {"compound": "CN(C)c1ccc(-c2cc(-c3cccc(C(F)(F)F)c3)c3c(N)ncnc3n2)cc1", "values": [{"measurement": "IC50", "setting": "[1]", "value": 0.036, "unit": "µM"}, {"measurement": "IC50", "setting": "[2]", "value": 0.225, "unit": "µM"}]}, {"compound": "Nc1ncnc2nc(-c3ccc(N4CCOCC4)nc3)cc(-c3cccc(Cl)c3)c12", "values": [{"measurement": "IC50", "setting": "[1]", "value": 0.009, "unit": "µM"}, {"measurement": "IC50", "setting": "[2]", "value": 0.096, "unit": "µM"}, {"measurement": "ED50", "setting": "[3]", "value": 20, "unit": "µmol/kg"}, {"measurement": "ED50", "setting": "[4]", "value": 10, "unit": "µmol/kg"}]}, {"compound": "CN(C)c1ccc(-c2cnc3c(N)ncnc3n2)cc1", "values": [{"measurement": "IC50", "setting": "[1]", "value": 0.4, "unit": "µM"}]}, {"compound": "C=CC(C)(C)c1cc(-c2ccc(N3CCOCC3)nc2)nc2ncnc(N)c12", "values": [{"measurement": "IC50", "setting": "[1]", "value": 0.021, "unit": "µM"}, {"measurement": "IC50", "setting": "[2]", "value": 0.304, "unit": "µM"}]}, {"compound": "CC(c1ccccc1Br)c1cc(-c2ccc(N3CCOCC3)nc2)nc2ncnc(N)c12", "note": "(stereo not drawn)", "values": [{"measurement": "IC50", "setting": "[1]", "value": 0.00025, "unit": "µM"}, {"measurement": "IC50", "setting": "[2]", "value": 0.03, "unit": "µM"}, {"measurement": "ED50", "setting": "[3]", "value": 10, "unit": "µmol/kg"}, {"measurement": "ED50", "setting": "[4]", "value": 10, "unit": "µmol/kg"}]}, {"compound": "CN(C)c1ccc(-c2cc(-c3cccc(C(N)=O)c3)c3c(N)ncnc3n2)cc1", "values": [{"measurement": "IC50", "setting": "[1]", "value": 0.077, "unit": "µM"}, {"measurement": "IC50", "setting": "[2]", "value": 0.85, "unit": "µM"}]}, {"compound": "CC1CC(C)CC(c2cc(-c3ccc(N4CCOCC4)nc3)nc3ncnc(N)c23)C1", "note": "(stereo not drawn)", "values": [{"measurement": "IC50", "setting": "[1]", "value": 0.00023, "unit": "µM"}, {"measurement": "IC50", "setting": "[2]", "value": 0.102, "unit": "µM"}, {"measurement": "ED50", "setting": "[3]", "value": 30, "unit": "µmol/kg"}, {"measurement": "ED50", "setting": "[4]", "value": "> 30", "unit": "µmol/kg"}]}, {"compound": "Nc1ncnc2nc(-c3ccc(N4CCOCC4)nc3)cc(-c3ccc(Br)cc3)c12", "values": [{"measurement": "IC50", "setting": "[1]", "value": 0.03, "unit": "µM"}, {"measurement": "IC50", "setting": "[2]", "value": 0.43, "unit": "µM"}, {"measurement": "ED50", "setting": "[4]", "value": 30, "unit": "µmol/kg"}]}, {"compound": "CN(C)c1ccc(-c2cc(-c3cccc(Cl)c3)c3c(N)ncnc3n2)cc1", "values": [{"measurement": "IC50", "setting": "[1]", "value": 0.015, "unit": "µM"}, {"measurement": "IC50", "setting": "[2]", "value": 0.078, "unit": "µM"}]}, {"compound": "CCC(CC)c1cc(-c2ccc(N3CCOCC3)nc2)nc2ncnc(N)c12", "values": [{"measurement": "IC50", "setting": "[1]", "value": 0.009, "unit": "µM"}, {"measurement": "IC50", "setting": "[2]", "value": 0.115, "unit": "µM"}, {"measurement": "ED50", "setting": "[3]", "value": 30, "unit": "µmol/kg"}]}, {"compound": "CN(C)c1ccc(-c2cc(C3CCCCC3)c3c(N)ncnc3n2)cc1", "values": [{"measurement": "IC50", "setting": "[1]", "value": 0.008, "unit": "µM"}, {"measurement": "IC50", "setting": "[2]", "value": 0.47, "unit": "µM"}]}, {"compound": "COc1cccc(-c2cc(-c3ccc(N(C)C)cc3)nc3ncnc(N)c23)c1", "values": [{"measurement": "IC50", "setting": "[1]", "value": 0.085, "unit": "µM"}, {"measurement": "IC50", "setting": "[2]", "value": 0.4, "unit": "µM"}]}, {"compound": "Nc1ncnc2nc(-c3ccc(N4CCOCC4)nc3)cc(-c3ccco3)c12", "values": [{"measurement": "IC50", "setting": "[1]", "value": 0.01, "unit": "µM"}, {"measurement": "IC50", "setting": "[2]", "value": 0.488, "unit": "µM"}]}, {"compound": "CCCCc1cc(-c2ccc(N(C)C)cc2)nc2ncnc(N)c12", "values": [{"measurement": "IC50", "setting": "[1]", "value": 0.011, "unit": "µM"}, {"measurement": "IC50", "setting": "[2]", "value": 0.55, "unit": "µM"}]}, {"compound": "Nc1ncnc2nc(-c3ccc(N4CCOCC4)nc3)ccc12", "values": [{"measurement": "IC50", "setting": "[1]", "value": 0.562, "unit": "µM"}, {"measurement": "IC50", "setting": "[2]", "value": "> 1", "unit": "µM"}]}, {"compound": "Nc1ncnc2nc(-c3ccc(N4CCOCC4)nc3)cc(C3CCCCC3)c12", "values": [{"measurement": "IC50", "setting": "[1]", "value": 0.003, "unit": "µM"}, {"measurement": "IC50", "setting": "[2]", "value": 0.057, "unit": "µM"}, {"measurement": "ED50", "setting": "[3]", "value": 10, "unit": "µmol/kg"}, {"measurement": "ED50", "setting": "[4]", "value": 20, "unit": "µmol/kg"}]}, {"compound": "Nc1ncnc2nc(-c3ccc(N4CCOCC4)nc3)cc(-c3cc(Cl)ccc3Cl)c12", "values": [{"measurement": "IC50", "setting": "[1]", "value": 0.038, "unit": "µM"}, {"measurement": "IC50", "setting": "[2]", "value": 0.378, "unit": "µM"}]}, {"compound": "CN(C)c1ccc(-c2cc(C3CC3)c3c(N)ncnc3n2)cc1", "values": [{"measurement": "IC50", "setting": "[1]", "value": 0.055, "unit": "µM"}, {"measurement": "IC50", "setting": "[2]", "value": 0.825, "unit": "µM"}]}, {"compound": "Nc1ncnc2nc(-c3ccc(N4CCOCC4)nc3)cc(-c3cccc(Br)c3)c12", "values": [{"measurement": "IC50", "setting": "[1]", "value": 0.002, "unit": "µM"}, {"measurement": "IC50", "setting": "[2]", "value": 0.05, "unit": "µM"}, {"measurement": "ED50", "setting": "[3]", "value": 0.6, "unit": "µmol/kg"}, {"measurement": "ED50", "setting": "[4]", "value": 25, "unit": "µmol/kg"}]}]}
